Measured values taken from PubChem BioAssay (NCI).
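GI50 marks 50% less growth. The concentration for full growth arrest is given as TGI.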

Key:
Assay in all cases: NCI tumour cell line growth inhibition, 384-well format; in the data active means GI50 below about 0.43 µM; inactive means the rest
SN12C renal = tested on: SN12C renal
UO-31 renal = tested on: UO-31 renal
COLO 205 colon = tested on: COLO 205 colon
T-47D breast = tested on: T-47D breast
HS 578T breast = tested on: HS 578T breast
SW-620 colon = tested on: SW-620 colon
SNB-19 CNS = tested on: SNB-19 CNS
HT29 colon = tested on: HT29 colon
KM12 colon = tested on: KM12 colon
A549 NSCLC = tested on: A549 NSCLC
HCT-15 colon = tested on: HCT-15 colon
SK-MEL-5 melanoma = tested on: SK-MEL-5 melanoma
SR leukemia = tested on: SR leukemia
786-0 renal = tested on: 786-0 renal
BT-549 breast = tested on: BT-549 breast
IGROV1 ovarian = tested on: IGROV1 ovarian
NCI/ADR-RES ovarian = tested on: NCI/ADR-RES ovarian
SF-268 CNS = tested on: SF-268 CNS
OVCAR-8 ovarian = tested on: OVCAR-8 ovarian
MOLT-4 leukemia = tested on: MOLT-4 leukemia
SF-295 CNS = tested on: SF-295 CNS
ACHN renal = tested on: ACHN renal
M14 melanoma = tested on: M14 melanoma
K-562 leukemia = tested on: K-562 leukemia
A498 renal = tested on: A498 renal
OVCAR-5 ovarian = tested on: OVCAR-5 ovarian
NCI-H460 NSCLC = tested on: NCI-H460 NSCLC
HOP-92 NSCLC = tested on: HOP-92 NSCLC
SF-539 CNS = tested on: SF-539 CNS
HCT-116 colon = tested on: HCT-116 colon
UACC-62 melanoma = tested on: UACC-62 melanoma
RXF 393 renal = tested on: RXF 393 renal
HOP-62 NSCLC = tested on: HOP-62 NSCLC
NCI-H226 lung = tested on: NCI-H226 lung
CCRF-CEM leukemia = tested on: CCRF-CEM leukemia
NCI-H23 lung = tested on: NCI-H23 lung
U251 glioblastoma = tested on: U251 glioblastoma
SK-OV-3 ovarian = tested on: SK-OV-3 ovarian
OVCAR-4 ovarian = tested on: OVCAR-4 ovarian
UACC-257 melanoma = tested on: UACC-257 melanoma
SK-MEL-2 melanoma = tested on: SK-MEL-2 melanoma
HL-60(TB) leukemia = tested on: HL-60(TB) leukemia
LOX IMVI melanoma = tested on: LOX IMVI melanoma
EKVX NSCLC = tested on: EKVX NSCLC
OVCAR-3 ovarian = tested on: OVCAR-3 ovarian
SK-MEL-28 melanoma = tested on: SK-MEL-28 melanoma
MDA-MB-435 melanoma = tested on: MDA-MB-435 melanoma

CC(C)n1c(=O)n(C)c2cnc3cc(F)c(-c4ccc(OCCCN5CCCCC5)nc4)cc3c21
47 µM: TGI (HL-60(TB) leukemia)
> 100 µM: TGI (SN12C renal) | TGI (UO-31 renal) | TGI (COLO 205 colon) | TGI (T-47D breast) | TGI (SNB-19 CNS) | TGI (KM12 colon) | TGI (A549 NSCLC) | TGI (HCT-15 colon) | TGI (SK-MEL-5 melanoma) | TGI (786-0 renal) | TGI (BT-549 breast) | TGI (IGROV1 ovarian) | TGI (NCI/ADR-RES ovarian) | TGI (SF-268 CNS) | TGI (OVCAR-8 ovarian) | TGI (SF-295 CNS) | TGI (ACHN renal) | TGI (M14 melanoma) | TGI (A498 renal) | TGI (OVCAR-5 ovarian) | TGI (NCI-H460 NSCLC) | TGI (HOP-92 NSCLC) | TGI (SF-539 CNS) | TGI (HCT-116 colon) | TGI (UACC-62 melanoma) | TGI (RXF 393 renal) | TGI (HOP-62 NSCLC) | TGI (NCI-H226 lung) | TGI (NCI-H23 lung) | TGI (U251 glioblastoma) | TGI (SK-OV-3 ovarian) | TGI (OVCAR-4 ovarian) | TGI (UACC-257 melanoma) | TGI (LOX IMVI melanoma) | TGI (EKVX NSCLC) | TGI (OVCAR-3 ovarian) | TGI (SK-MEL-28 melanoma) | TGI (MDA-MB-435 melanoma)
> 40.4 µM: TGI (MOLT-4 leukemia)
> 70 µM: TGI (SK-MEL-2 melanoma)
19.4 µM: TGI (SR leukemia)
inactive: GI50 (SN12C renal) 25.8 µM | GI50 (UO-31 renal) 83.8 µM | GI50 (COLO 205 colon) > 100 µM | GI50 (T-47D breast) > 48.5 µM | GI50 (HS 578T breast) 3.91 µM | GI50 (SW-620 colon) 19.5 µM | GI50 (SNB-19 CNS) > 95.5 µM | GI50 (HT29 colon) 22.3 µM | GI50 (KM12 colon) 4.57 µM | GI50 (A549 NSCLC) > 100 µM | GI50 (HCT-15 colon) 52.3 µM | GI50 (SK-MEL-5 melanoma) > 38.4 µM | GI50 (SR leukemia) 7.14 µM | GI50 ([…]-0 renal) > 77.4 µM | GI50 (BT-549 breast) 9.56 µM | GI50 (IGROV1 ovarian) > 100 µM | GI50 (NCI/ADR-RES ovarian) > 100 µM | GI50 (SF-268 CNS) 45.4 µM | GI50 (OVCAR-8 ovarian) > 43.4 µM | GI50 (MOLT-4 leukemia) 5.66 µM | GI50 (SF-295 CNS) > 100 µM | GI50 (ACHN renal) > 60.2 µM | GI50 (M14 melanoma) > 75.7 µM | GI50 (K-562 leukemia) 4.93 µM | GI50 (A498 renal) > 73.4 µM | GI50 (OVCAR-5 ovarian) > 100 µM | GI50 (NCI-H460 NSCLC) 18.6 µM | GI50 (HOP-92 NSCLC) > 54.4 µM | GI50 (SF-539 CNS) > 84.1 µM | GI50 (HCT-116 colon) 21.7 µM | GI50 (UACC-62 melanoma) 31.9 µM | GI50 (RXF 393 renal) > 63.4 µM | GI50 (HOP-62 NSCLC) > 33.2 µM | GI50 (NCI-H226 lung) 14.3 µM | GI50 (CCRF-CEM leukemia) 10.1 µM | GI50 (NCI-H23 lung) > 77.1 µM | GI50 (U251 glioblastoma) > 70.8 µM | GI50 (SK-OV-3 ovarian) > 62.5 µM | GI50 (OVCAR-4 ovarian) > 100 µM | GI50 (UACC-257 melanoma) 36.3 µM | GI50 (SK-MEL-2 melanoma) 35.2 µM | GI50 (HL-60(TB) leukemia) 11.8 µM | GI50 (LOX IMVI melanoma) 72.5 µM | GI50 (EKVX NSCLC) 11.6 µM | GI50 (OVCAR-3 ovarian) 38.9 µM | GI50 (SK-MEL-28 melanoma) > 100 µM | GI50 (MDA-MB-435 melanoma) > 100 µM
> 46.8 µM: TGI (K-562 leukemia)
27.4 µM: TGI (HS 578T breast)
> 46.7 µM: TGI (CCRF-CEM leukemia)
> 87.2 µM: TGI (HT29 colon)
> 75.8 µM: TGI (SW-620 colon)

CS(=O)(=O)c1ccc(Oc2cc(F)cc(C#N)c2)c2c1[C@H](O)C(F)(F)C2
> 100 µM: TGI (SN12C renal) | TGI (UO-31 renal) | TGI (COLO 205 colon) | TGI (T-47D breast) | TGI (HS 578T breast) | TGI (SW-620 colon) | TGI (SNB-19 CNS) | TGI (HT29 colon) | TGI (KM12 colon) | TGI (A549 NSCLC) | TGI (HCT-15 colon) | TGI (SK-MEL-5 melanoma) | TGI (SR leukemia) | TGI (786-0 renal) | TGI (BT-549 breast) | TGI (IGROV1 ovarian) | TGI (NCI/ADR-RES ovarian) | TGI (SF-268 CNS) | TGI (OVCAR-8 ovarian) | TGI (MOLT-4 leukemia) | TGI (SF-295 CNS) | TGI (ACHN renal) | TGI (M14 melanoma) | TGI (K-562 leukemia) | TGI (A498 renal) | TGI (OVCAR-5 ovarian) | TGI (NCI-H460 NSCLC) | TGI (HOP-92 NSCLC) | TGI (SF-539 CNS) | TGI (HCT-116 colon) | TGI (UACC-62 melanoma) | TGI (RXF 393 renal) | TGI (HOP-62 NSCLC) | TGI (NCI-H226 lung) | TGI (CCRF-CEM leukemia) | TGI (NCI-H23 lung) | TGI (U251 glioblastoma) | TGI (SK-OV-3 ovarian) | TGI (OVCAR-4 ovarian) | TGI (UACC-257 melanoma) | TGI (SK-MEL-2 melanoma) | TGI (HL-60(TB) leukemia) | TGI (LOX IMVI melanoma) | TGI (EKVX NSCLC) | TGI (OVCAR-3 ovarian) | TGI (SK-MEL-28 melanoma) | TGI (MDA-MB-435 melanoma)
inactive: GI50 (SN12C renal) > 100 µM | GI50 (UO-31 renal) > 100 µM | GI50 (COLO 205 colon) > 100 µM | GI50 (T-47D breast) > 100 µM | GI50 (HS 578T breast) > 100 µM | GI50 (SW-620 colon) > 100 µM | GI50 (SNB-19 CNS) > 100 µM | GI50 (HT29 colon) > 100 µM | GI50 (KM12 colon) > 100 µM | GI50 (A549 NSCLC) > 100 µM | GI50 (HCT-15 colon) > 100 µM | GI50 (SK-MEL-5 melanoma) > 100 µM | GI50 (SR leukemia) > 73.6 µM | GI50 ([…]-0 renal) > 100 µM | GI50 (BT-549 breast) > 100 µM | GI50 (IGROV1 ovarian) > 100 µM | GI50 (NCI/ADR-RES ovarian) > 100 µM | GI50 (SF-268 CNS) > 100 µM | GI50 (OVCAR-8 ovarian) > 100 µM | GI50 (MOLT-4 leukemia) > 86.1 µM | GI50 (SF-295 CNS) > 100 µM | GI50 (ACHN renal) > 100 µM | GI50 (M14 melanoma) > 100 µM | GI50 (K-562 leukemia) > 100 µM | GI50 (A498 renal) > 100 µM | GI50 (OVCAR-5 ovarian) > 100 µM | GI50 (NCI-H460 NSCLC) > 100 µM | GI50 (HOP-92 NSCLC) > 100 µM | GI50 (SF-539 CNS) > 100 µM | GI50 (HCT-116 colon) > 100 µM | GI50 (UACC-62 melanoma) > 100 µM | GI50 (RXF 393 renal) > 100 µM | GI50 (HOP-62 NSCLC) > 100 µM | GI50 (NCI-H226 lung) > 100 µM | GI50 (CCRF-CEM leukemia) > 100 µM | GI50 (NCI-H23 lung) > 100 µM | GI50 (U251 glioblastoma) > 100 µM | GI50 (SK-OV-3 ovarian) > 100 µM | GI50 (OVCAR-4 ovarian) > 100 µM | GI50 (UACC-257 melanoma) > 100 µM | GI50 (SK-MEL-2 melanoma) > 100 µM | GI50 (HL-60(TB) leukemia) > 66 µM | GI50 (LOX IMVI melanoma) > 100 µM | GI50 (EKVX NSCLC) > 100 µM | GI50 (OVCAR-3 ovarian) > 100 µM | GI50 (SK-MEL-28 melanoma) > 100 µM | GI50 (MDA-MB-435 melanoma) > 100 µM
